# Laboratory results taken from US9950048B2, “Immunogenic epitopes for immunotherapy” (immatics biotechnologies GmbH, priority 2007, dated 2018).
# Ends that are not written are not given here.
# Legend:
# HLA-A*0201 = HLA-A*0201 (Homo sapiens, UniProt P04439, D140Y/D185E/D98H/E176V/E277Q/G131W/G231S/I119V/I121R/I166T/I218V/L300P/L318F/N151K/N90K/P208A/P217A/Q86G/Q94H/R138H/R169H/T345S); assay: HLA-A*0201 binding assay, ELISA EpI Kit (Example 4); conditions: for binding affinity to HLA-A*0201 (KD), in words: FIG. 4, lower KD = higher affinity
# Procedure: FIG. 4 depicts binding affinities of selected peptides to HLA-A*0201 as measured by EpI ELISA according to Sylvester-Hvid, C, et al., 2002, Tissue Antigens, 59, 251-258). The analysis was limited to peptides known to be MHC class I binding peptides. Affinities of HLA-DR binding peptides cannot be measured with this assay.
# The HLA binding assay was performed using the ELISA EpI Kit (obtained from Sceren Buus, Institute of Medical Microbiology and Immunology at the University of Copenhagen, Denmark) according to Sylvester-Hvid (Sylvester-Hvid, at al., 2002, Tissue Antigens, 59, 251-258) and the ELISA EpI Kit manual by the manufacturer.
# Peptides were dissolved in DMSO+0.5% TFA (Merck, Darmstadt, Germany) at a concentration of 10 mg/ml. The highest peptide working solution used in this assay was 200 μM, therefore the stock solution was diluted 1:50 in a peptide-dilution buffer (PBS with 0.1% Lutrol-F68 and 10 mg/1 Phenol red) to a final volume of 100 μl. A serial five-fold dilution was performed with peptide-dilution buffer.
# According to the manual, a 2-fold concentrated HLA-A*0201 solution was prepared by mixing 3×pH buffer (pH 6.6), Lutrol-F68, human β2m, recombinant HLA-A*0201 (all included in the ELISA EpI Kit) with PBS.
# For the refolding process, 15 μl of peptide serial dilutions and 15 μl of the 2-fold concentrated MHC mix were mixed in 96-well plates (Nunc, Rochester, N.Y., USA) and incubated at 18° C. for 48 hours.
# Maxisorp plates (Nunc, Rochester, N.Y.) were coated with 5 μg/ml w6/32 antibody in coating buffer (pH 9.6), incubated for 24 h at 4° C. and blocked with 5% skim milk powder (Merck, Darmstadt, Germany) in PBS over night at 4° C.
# MHC complex standard (ELISA EpI Kit) was diluted with 2% skim milk powder in PBS (SMP/PBS) to a concentration of 10 nM. A serial 3.16-fold dilution was prepared and transferred to the coated and blocked Maxisorp plate. […] Plates were read at OD450 nm using the VERSAmax ELISA-Reader (Molecular Devices, Sunnyvale, Calif., USA). […]
# [1] = system: CD8+ T cells of healthy donors; assay: Priming of high-avidity CD8+ T cells with low density pMHC beads, tetramer staining and FACS sorting; format: cell-based, human; conditions: for establishment of specific high-avidity T-cell lines by FACS: healthy donors; for in vitro immunogenicity with low pMHC density aAPCs: low density beads (2 ng relevant pMHC)
# Description: Dependent on their ability to be activated by high- or low-density antigen, T cell lines can be divided into high- or low-avidity. As it has been shown before (Walter, S, et al., 2003, J. Immunol., 171, 4974-4978), human high-avidity CTLs can be raised successfully by using less peptide for activation compared to low-avidity CD8+ T cells.
# To determine the ability of peptides to generate high-avidity CTL lines, isolated human CD8+ cells were primed and expanded by repeated in vitro stimulations with beads coated with low-density pMHC (peptide-MHC-complex) and anti-CD28 antibody in the presence of IL-12 and IL-2. After three stimulations, a fraction of in vitro primed T cells were pMHC-tetramer stained and detected by cytometric analysis. Tetramer-positive cells of each donor were pooled afterwards according to the antigen specificity, stained with pMHC-tetramer and human anti-CD8-FITC antibody and finally subjected to FACS sorting on a FACSAria. Sorted cells were cultured and expanded in the presence of irradiated feeder cells, cytokines and mitogen. As a read-out for the generation of primed high avidity antigen specific cells, pMHC-tetramer staining was performed. In order to determine their functionality, IFNγ production was assayed by ELISPOT and killing of tumor cell lines was examined using a cytotoxicity assay based on live/dead staining after restimulation of the cells with the corresponding peptide and tumor cell lines.
# In vitro stimulations using artificial antigen presenting cells (aAPC) loaded with peptide-MHC complex (pMHC) and anti-CD28 antibody were conducted as described above. The only difference to the method described above was the fact that stimulations were performed with beads loaded with 2 ng relevant plus 200 ng irrelevant library (pMHC) MHC (low density beads) instead of 200 ng relevant MHC (high density beads). Thus, predominantly high avidity T cells were generated for deeper validation of peptides. After three stimulations, a fraction of in vitro primed T cells was pMHC-tetramer stained and detected by cytometric analysis. […] Tetramer-positive cells of each donor were pooled afterwards according to the antigen specificity, stained with the corresponding pMHC-tetramer and human anti-CD8-FITC antibody clone SK1 and finally subjected to FACS sorting on a FACSAria (BD Biosciences, Germany). […] As a read-out for the generation of primed high avidity antigen specific cells, pMHC-tetramer staining was performed as above and analyzed on a four-color FACSCalibur (BD Biosciences, Germany).
"binding affinity to HLA-A*0201 (KD), in words (HLA-A*0201)",fold lower KD value compared with the majority of peptides (HLA-A*0201; FIG. 4),Sequence,establishment of specific high-avidity T-cell lines by FACS [1],in vitro immunogenicity with low pMHC density aAPCs [1]
slightly higher binding affinity,–,ILAPVILYI [NOX-001],specific T-cell lines could be established by FACS,immunogenic in vitro
strongest binder,100 fold,ALFVRLLALA [TGFBI-001],specific T-cell lines could be established by FACS,immunogenic in vitro
